System: vaginal proteome (human proteins in vaginal fluid)
Test: MS/MS proteomic analysis of vaginal fluid pools, BV-affected women before (BV) and after rifaximin/placebo treatment: human proteins
Assay type: in vivo
Protocol: Proteomic analysis was performed on 9 pools of vaginal isolates, grouped according to the status of the BV infection: • H pool (from 41 healthy women); BV pool (from 39 BV-affected women); • A-R pool (from 2 women who were in remission after rifaximin treatment-group A); • A-N pool (from 8 women who were not in remission after rifaximin treatment-group A); • B-R pool (from 5 women who were in remission after rifaximin treatment-group B); • B-N pool (from 5 women who were not in remission after rifaximin treatment-group B); • C-R pool (from 4 women who were in remission after rifaximin treatment-group C); • C-N (from 5 women who were not in remission after rifaximin treatment-group C); • D-N (from 10 women who were not in remission after placebo treatment-group D). Scheme of the vaginal fluids collected for testing the diagnostic method is represented in FIG. 1.
In these figures are reported the peptides in the fractionated pools of healthy women, women affected by BV and peptides of women treated with rifaximin. The treatment with rifaximin was at dosage of 100 mg/day for 5 days; (remission, A-R; no remission, A-N), 25 mg/5 days (remission, B-R; no remission, B-N), 100 mg/2 days (remission, C-R; no remission, C-N), and placebo for 5 days (D-N). Two types of comparisons were carried out: (i) between fractionated pools of proteins from vaginal fluid of healthy women (HF) versus fractionated pool of proteins from vaginal fluid of women affected by bacterial vaginosis (BVF); (ii) between whole pools of proteins from vaginal fluid of women affected by BV treated by administering different doses of rifaximin or placebo before (BV) and after (A-R, A-N, B-R, B-N, C-R, C-N, D-N) treatment. Fractioned pools of proteins are obtained, e.g., by separating the proteins by separation on membrane filtration with different membrane porosity, prior to MS/MS analysis.
Nine volumes of acetone: HCl (10:1) were added to the supernatant of the vaginal rinsing and proteins were precipitated by centrifuging at 12000 g for 10 min. The protein pellet was dissolved in 1 mL of 70% ethanol and the sample was spun at 12000 g for 10 min. One mL of acetone was added and the proteins were further precipitated by centrifugation at 12000 g for 5 min. After removing supernatant, pellet was dried by SpeedVac concentrator (Thermo Savant ISS110, Thermo Fisher Scientific, Waltham, Mass.) and then stored at −20° C.
Protein extract was quantified using the 2-D Quant Kit (GE Healthcare, Uppsala, Sweden) according to the manufacturer's instructions.
Patients who were diagnosed for BV at the study visit V1 were included in a multicentre, double-blind, randomised, placebo-controlled study (EudraCT: 2009-011826-32), that was performed to compare the efficacy of different doses of rifaximin vaginal tablets versus placebo for the treatment of BV. The patients underwent a randomisation visit and were distributed into 4 treatment groups: group A received 100 mg rifaximin vaginal tablet once daily for 5 days (n=10), group B received 25 mg rifaximin vaginal tablet once daily for 5 days (n=10), group C received 100 mg rifaximin vaginal tablet once daily for the first 2 days and placebo vaginal tablet for the remaining 3 days (n=9), group D received placebo vaginal tablet once daily for 5 days (n=10). Study medication was administered intra-vaginally at bedtime. After 7 to 10 days from the end of the therapy a follow-up visit (V3) was performed. Remission was evaluated at V3 according to Amsel's criteria (<3) and Gram stain Nugent score (≦3) (Table 1).
Standardized vaginal rinsings with 2 mL of saline were collected for analysis at V1 and V3 by flushing and re-aspirating the fluid through a 22 Gauge needle in the left, central and right upper vaginal vaults. The vaginal rinsings were subsequently stored at −80° C. until use.
MS/MS analysis was carried out for H and BV pools and for the whole BV, A-R, A-N, B-R, B-N, C-R, C-N and D-N pools containing 50 μg of protein each. […]

**Q.** How did the “Ratio: BV/R, Vitamin D-binding protein” value (C-R pool (100 mg × 2 days, in remission) vs BV pool before treatment, vaginal fluid) turn out when CO[C@H]1/C=C/O[C@@]2(C)Oc3c(C)c(O)c4c(O)c(c5c(nc6cc(C)ccn65)c4c3C2=O)NC(=O)/C(C)=C\C=C\[C@H](C)[C@H](O)[C@@H](C)[C@@H](O)[C@@H](C)[C@H](OC(C)=O)[C@@H]1C [rifaximin] was run?
**A.** 0.0

**Q.** What about the “Ratio X/H Sciellin (O95171)” value (pool A-N after treatment) of the same compound?
**A.** 0.0

**Q.** What about the “Ratio X/H Semenogelin-2 (Q02383)” value (pool A-N after treatment) of the same compound?
**A.** 525.8

**Q.** What about the “Ratio X/H Serine protease 27 (Q9BQR3)” value (pool A-N after treatment) of the same compound?
**A.** 0.0

**Q.** What about the “Ratio X/H Serine/threonine-protein kinase ULK1 (O75385)” value (pool A-N after treatment) of the same compound?
**A.** −5.1

**Q.** And the “Ratio X/H Serotransferrin (P02787)” value (pool A-N after treatment)?
**A.** 1.6

**Q.** What about the “Ratio X/H Serpin B3 (P29508)” value (pool A-N after treatment) of the same compound?
**A.** 0.0

**Q.** And the “Ratio X/H Serpin B4 (P48594)” value (pool A-N after treatment)?
**A.** 0.0

**Q.** And the “Ratio X/H Serpin B5 (P36952)” value (pool A-N after treatment)?
**A.** −3.3

**Q.** And the “Ratio X/H Serpin B6 (P35237)” value (pool A-N after treatment)?
**A.** −2.1

**Q.** What about the “Ratio X/H Serpin B9 (P50453)” value (pool A-N after treatment) of the same compound?
**A.** −2.6

**Q.** And the “Ratio X/H Serpin B12 (Q96P63)” value (pool A-N after treatment)?
**A.** −1.5

**Q.** And the “Ratio X/H Serpin B13 (Q9UIV8)” value (pool A-N after treatment)?
**A.** 0.0

**Q.** And the “Ratio X/H Serum albumin (P02768)” value (pool A-N after treatment)?
**A.** −1.5

**Q.** What about the “Ratio X/H Serum paraoxonase/arylesterase 1 (P27169)” value (pool A-N after treatment) of the same compound?
**A.** 1.5

**Q.** And the “Ratio X/H Small proline-rich protein 3 (Q9UBC9)” value (pool A-N after treatment)?
**A.** 3.4

**Q.** And the “Ratio X/H Stanniocalcin-1 (P52823)” value (pool A-N after treatment)?
**A.** 1.9

**Q.** And the “Ratio X/H Sulfhydryl oxidase 1 (O00391)” value (pool A-N after treatment)?
**A.** −1.6

**Q.** What about the “Ratio X/H Superoxide dismutase [Cu—Zn] (P00441)” value (pool A-N after treatment) of the same compound?
**A.** 0.0

**Q.** And the “Ratio X/H Suprabasin (Q6UWP8)” value (pool A-N after treatment)?
**A.** 13.5

**Q.** What about the “Ratio X/H Syntenin-1 (O00560)” value (pool A-N after treatment) of the same compound?
**A.** 4.4

**Q.** What about the “Ratio X/H Talin-1 (Q9Y490)” value (pool A-N after treatment) of the same compound?
**A.** 0.0

**Q.** And the “Ratio X/H Tctex1 domain-containing protein 2 (Q8WW35)” value (pool A-N after treatment)?
**A.** −1.6

**Q.** And the “Ratio X/H Teneurin-3 (Q9P273)” value (pool A-N after treatment)?
**A.** 9.7

**Q.** And the “Ratio X/H Thioredoxin (P10599)” value (pool A-N after treatment)?
**A.** 0.0

**Q.** What about the “Ratio X/H Transaldolase (P37837)” value (pool A-N after treatment) of the same compound?
**A.** −1.8

**Q.** And the “Ratio X/H Transmembrane protease serine 11D (O60235)” value (pool A-N after treatment)?
**A.** −1.8

**Q.** And the “Ratio X/H Transthyretin (P02766)” value (pool A-N after treatment)?
**A.** 0.0

**Q.** And the “Ratio X/H Tumor protein D54 (O43399)” value (pool A-N after treatment)?
**A.** 0.0

**Q.** And the “Ratio X/H UTP--glucose-1-phosphate uridylyltransferase (Q16851)” value (pool A-N after treatment)?
**A.** 0.0

**Q.** What about the “Ratio X/H UV excision repair protein RAD23 homolog B (P54727)” value (pool A-N after treatment) of the same compound?
**A.** −2.9

**Q.** And the “Ratio X/H Uronyl 2-sulfotransferase (Q9Y2C2)” value (pool A-N after treatment)?
**A.** −786.0

**Q.** What about the “Ratio X/H Versican core protein (P13611)” value (pool A-N after treatment) of the same compound?
**A.** 0.0

**Q.** What about the “Ratio X/H Vinculin (P18206)” value (pool A-N after treatment) of the same compound?
**A.** 0.0

**Q.** What about the “Ratio X/H Vitamin D-binding protein (P02774)” value (pool A-N after treatment) of the same compound?
**A.** 0.0

**Q.** And the “Ratio X/H Werner syndrome ATP-dependent helicase (Q14191)” value (pool A-N after treatment)?
**A.** 302.6

**Q.** And the “Ratio X/H Zinc finger protein 185 (O15231)” value (pool A-N after treatment)?
**A.** 2.2

**Q.** And the “Ratio X/H Zinc finger protein 335 (Q9H4Z2)” value (pool A-N after treatment)?
**A.** 0.0

**Q.** What about the “Ratio X/H Zinc-alpha-2-glycoprotein (P25311)” value (pool A-N after treatment) of the same compound?
**A.** 0.0

**Q.** And the “Ratio X/H Zyxin (Q15942)” value (pool A-N after treatment)?
**A.** −1.7

**Q.** What about the “Ratio X/H Sciellin (O95171)” value (pool A-R after treatment) of the same compound?
**A.** 0.0

**Q.** What about the “Ratio X/H Semenogelin-2 (Q02383)” value (pool A-R after treatment) of the same compound?
**A.** 1.9

**Q.** And the “Ratio X/H Serine protease 27 (Q9BQR3)” value (pool A-R after treatment)?
**A.** −1.7

**Q.** What about the “Ratio X/H Serine/threonine-protein kinase ULK1 (O75385)” value (pool A-R after treatment) of the same compound?
**A.** −2.2

**Q.** And the “Ratio X/H Serotransferrin (P02787)” value (pool A-R after treatment)?
**A.** −1.5

**Q.** What about the “Ratio X/H Serpin B3 (P29508)” value (pool A-R after treatment) of the same compound?
**A.** 3.2

**Q.** And the “Ratio X/H Serpin B4 (P48594)” value (pool A-R after treatment)?
**A.** 0.0

**Q.** And the “Ratio X/H Serpin B5 (P36952)” value (pool A-R after treatment)?
**A.** −7.9

**Q.** What about the “Ratio X/H Serpin B6 (P35237)” value (pool A-R after treatment) of the same compound?
**A.** 0.0

**Q.** And the “Ratio X/H Serpin B9 (P50453)” value (pool A-R after treatment)?
**A.** −4.1

**Q.** And the “Ratio X/H Serpin B12 (Q96P63)” value (pool A-R after treatment)?
**A.** −2.7

**Q.** What about the “Ratio X/H Serpin B13 (Q9UIV8)” value (pool A-R after treatment) of the same compound?
**A.** 0.0

**Q.** What about the “Ratio X/H Serum albumin (P02768)” value (pool A-R after treatment) of the same compound?
**A.** −2.3

**Q.** What about the “Ratio X/H Serum paraoxonase/arylesterase 1 (P27169)” value (pool A-R after treatment) of the same compound?
**A.** 0.0

**Q.** And the “Ratio X/H Small proline-rich protein 3 (Q9UBC9)” value (pool A-R after treatment)?
**A.** 6.6

**Q.** What about the “Ratio X/H Stanniocalcin-1 (P52823)” value (pool A-R after treatment) of the same compound?
**A.** 3.4

**Q.** What about the “Ratio X/H Sulfhydryl oxidase 1 (O00391)” value (pool A-R after treatment) of the same compound?
**A.** 0.0

**Q.** And the “Ratio X/H Superoxide dismutase [Cu—Zn] (P00441)” value (pool A-R after treatment)?
**A.** −1.8

**Q.** What about the “Ratio X/H Suprabasin (Q6UWP8)” value (pool A-R after treatment) of the same compound?
**A.** 17.9

**Q.** And the “Ratio X/H Syntenin-1 (O00560)” value (pool A-R after treatment)?
**A.** 1.9

**Q.** And the “Ratio X/H Talin-1 (Q9Y490)” value (pool A-R after treatment)?
**A.** −1.6

**Q.** What about the “Ratio X/H Tctex1 domain-containing protein 2 (Q8WW35)” value (pool A-R after treatment) of the same compound?
**A.** 1.8

**Q.** What about the “Ratio X/H Teneurin-3 (Q9P273)” value (pool A-R after treatment) of the same compound?
**A.** 33.3

**Q.** And the “Ratio X/H Thioredoxin (P10599)” value (pool A-R after treatment)?
**A.** 2.5

**Q.** What about the “Ratio X/H Transaldolase (P37837)” value (pool A-R after treatment) of the same compound?
**A.** −1.9

**Q.** What about the “Ratio X/H Transmembrane protease serine 11D (O60235)” value (pool A-R after treatment) of the same compound?
**A.** 0.0

**Q.** And the “Ratio X/H Transthyretin (P02766)” value (pool A-R after treatment)?
**A.** 0.0

**Q.** And the “Ratio X/H Tumor protein D54 (O43399)” value (pool A-R after treatment)?
**A.** 2.2

**Q.** What about the “Ratio X/H UTP--glucose-1-phosphate uridylyltransferase (Q16851)” value (pool A-R after treatment) of the same compound?
**A.** 0.0

**Q.** What about the “Ratio X/H UV excision repair protein RAD23 homolog B (P54727)” value (pool A-R after treatment) of the same compound?
**A.** −2.8

**Q.** What about the “Ratio X/H Uronyl 2-sulfotransferase (Q9Y2C2)” value (pool A-R after treatment) of the same compound?
**A.** 2.0

**Q.** What about the “Ratio X/H Versican core protein (P13611)” value (pool A-R after treatment) of the same compound?
**A.** 0.0

**Q.** And the “Ratio X/H Vinculin (P18206)” value (pool A-R after treatment)?
**A.** 0.0

**Q.** What about the “Ratio X/H Vitamin D-binding protein (P02774)” value (pool A-R after treatment) of the same compound?
**A.** −1.7

**Q.** What about the “Ratio X/H Werner syndrome ATP-dependent helicase (Q14191)” value (pool A-R after treatment) of the same compound?
**A.** 331.1

**Q.** What about the “Ratio X/H Zinc finger protein 185 (O15231)” value (pool A-R after treatment) of the same compound?
**A.** 5.2

**Q.** And the “Ratio X/H Zinc finger protein 335 (Q9H4Z2)” value (pool A-R after treatment)?
**A.** 0.0

**Q.** And the “Ratio X/H Zinc-alpha-2-glycoprotein (P25311)” value (pool A-R after treatment)?
**A.** 0.0
